The record followed here is ChEMBL document CHEMBL5236548, “Marine Natural Products: A Potential Source of Anti-hepatocellular Carcinoma Drugs” (J Med Chem, 2021).

Common to all, as to type: functional
The nature of assay [1]: […] of cell cycle arrest in human HepG2 cells assessed as accumulation of cells at G2/M phase at 50 uM relative to control. Also noted: scale not given: the % may be the effect or the level left.
A short description of assay [2]: Antitumor activity against human HCCLM3 cells xenografted in BALB/c nude mouse assessed as reduction in Ki67 at 20 mg/kg measured for 14 days (reference value: 41.67+/-7.22% ). The arrangement: scale not given: the % may be the effect or the level left. The following applies: time 14 day. In general terms: A xenograft is tissue or cells of one species grown in another, often human tumour cells in immunodeficient mice.

Assay [3] in a line: Antitumor activity against human HCCLM3 cells xenografted in BALB/c nude mouse assessed as inhibition of tumor growth at 20 mg/kg measured for 14 days relative to control. Particulars: HCCLM3, 336 h, time 14 day.
Assay [4] is described as follows: […] of cell cycle arrest in human HepG2 cells assessed as accumulation of cells at S phase at 50 uM relative to control. The arrangement: scale not given: the % may be the effect or the level left.
The nature of assay [5]: […] of cell cycle arrest in human HCCLM3 cells assessed as accumulation of cells at G2/M phase at 25 uM relative to control. Also noted: scale not given: the % may be the effect or the level left.
A short description of assay [6]: […] of cell cycle arrest in human HCCLM3 cells assessed as accumulation of cells at S phase at 25 uM relative to control. The arrangement: scale not given: the % may be the effect or the level left.

SMILES strings stand for the structures.

On to `COc1cc2ccnc3c2c(c1OC)NC=C3` [AAPTAMINE], for which the Activity in assay [1] was determined as 50%; in assay [2] it was 72.2%; in assay [4], 50%; in assay [5] it was 50%; in assay [6], 50%. Besides, the inhibition in vivo (in general, the drop in the measured response relative to a control, in per cent) at 20 mg/kg in assay [3] stood at 40.3%.
